Data as given in patent publication US11639368B2, “Method for preventing and treating hyperpermeability” (Apeptico Forschung UND E[…], priority 2009, dated 2023).
Entries after “also recorded” stand apart in the source; their conditions may differ.

Assays:
[1] = tested on: arterial endothelial cells; test: Reactive oxygen molecules in endothelial cells under oxygen deficiency, measured by EPR; type: cell-based; details: oxygen deficiency (0.1% oxygen, hypoxic gas mixture), 50 μg/ml of peptide
Procedure: Cell Culture of Endothelial Cells
For the generation of reactive oxygen molecules, arterial endothelial cells were cultivated in an oxygen-deficient gas mixture of 0.1% oxygen, 5% […] and 94.9% nitrogen (hypoxic gas mixture). In control experiments, the gas concentrations were 21% oxygen, 5% […] and 74% nitrogen (normoxic gas mixture).
After 90 minutes under oxygen-deficient conditions, the endothelial cells were cultivated with 21% oxygen for a further 30 minutes. Thereafter, 20 μl of a solution consisting of 20 uM 1-hydroxy-3-methoxycarbonyl-2,2,5,5-tetramethylpyrrolidine HCl (CHM), 20 μM DPBS, 25 μM desferrioxamine and 5 μM diethyldithiocarbamate as well as 2 μl of DMSO were added to the cells.
Trypsinization of the Cells.
Following cell culture, the cells were individualized in a manner common in the laboratory by adding a trypsin solution. The endothelial cells were washed and suspended in 35 μl of a solution consisting of DPBS and 25 μM desferrioxamine and 5 μM diethyldithiocarbamate.
Measurement of the Electron Paramagnetic Resonance (EPR)
The determination of the electron paramagnetic resonance (EPR), also called electron spin resonance, serves the investigation of paramagnetic substances, e.g. for detection of unpaired electrons in reactive oxygen molecules (radicals of the oxygen). […]

[2] = tested on: human endothelial cells of the lungs; test: Toxin-induced hyperpermeability, transendothelial electric resistance (ECIS), endothelial cells; type: cell-based; details: 500 ng/ml of listeriolysin, 50 μg/ml of peptide
[3] = tested on: Human epithelial cells of the lungs of type H441; test: Toxin-induced hyperpermeability, electric resistance (ECIS), epithelial cells; type: cell-based; details: 1 μg/ml of listeriolysin, 50 μg/ml of peptide
Procedure: (§1) Human epithelial cells of the lungs of type H441 were acquired from the company ATTC.
(§2) The microbial toxins listeriolysin (LLO) and pneumolysin (PLY) were acquired from the University of Giessen.
Epithelial cells of the lungs of type H441 were cultivated in a manner common in the laboratory in a commercial RPMI 1640 medium with the additives 2 mM L-glutamine, 1.5 g/l of sodium carbonate, 4.5 g/l of glucose, 10 mM HEPES buffer pH 7.4, 10% bovine serum. The ECIS experiments took place in serum-free medium.
In order to cause hyperpermeability, i.e. injuries of the endothelial cells and epithelial cells, the human epithelial cells of the lungs as well as the human endothelial cells of the lungs were cultivated in a manner common in the laboratory up to the formation of a continuous cell layer, and subsequently, the toxins listeriolysin or pneumolysin, respectively, were added.

myosin light chain = test: Phosphorylation of the myosin light chain (protein blot, densitometry); type: cell-based; details: human endothelial lung cells; for increase in the content of phosphorylated myosin light chain by listeriolysin: 250 ng/ml of listeriolysin, 50 μg/ml of peptide
Description: Human endothelial cells of the lungs, isolated from capillaries of the lungs, were acquired from the company Lonza.
as §2
Human endothelial cells of the lungs, isolated from capillaries of the lungs, were cultivated in a manner common in the laboratory.
Determination of Phosphorylation of the Myosin Light Chain
For the determination of phosphorylation of the myosin light chain and the influence of the peptide SEQ ID No. 1 on the phosphorylation, the previously cultivated human endothelial cells of the lungs were washed with phosphate buffer pH 7.4, which contained 1 mM orthovanadate. The cell contents was lysed by incubation of the cells with a solution of 20 mM tris buffer (pH 7.4), 150 mM mol/1 of NaCl, 1 mM EDTA, 1 mM EGTA, 1% Triton X-100, 2.5 mM sodiumpyrophosphate, 1 mM betaglycerophosphate, 1 mM sodiumvanadate, 1 μg/ml of leupeptine, 1 mM phenylmethylsulfonylfluoride. In addition, the cells were digested with ultrasound. The cell lysate was centrifuged in order to obtain the soluble components. The soluble cell lysate was subsequently applied to denaturing sodium dodecyl sulfate polyacrylamide gel electrophoresis in a manner common in the laboratory, and the proteins were separated according to their masses. Thereafter, the proteins were transferred onto nitrocellulose membranes. The protein blots were treated with a solution of 0.1% Tween 20 and 5% dry milk powder for 1 hour in a manner common in the laboratory. Subsequently, the protein blots were incubated with antibodies directed against either the myosin light chain or the phosphorylated myosin light chain.
In order to make either the myosin light chain or the phosphorylated myosin light chain visible, the antibodies were made visible on diagnostic film using chemiluminescence in a manner common in the laboratory. The signal strength was determined with densitometry, and the ratio of myosin light chain to phosphorylated myosin light chain was determined.

[4] = tested on: epithelial sodium channel (ENaC); test: Expression of the epithelial sodium channel by real-time PCR in H441 cells; type: cell-based, human; details: 50 μg/ml of peptide, H441 epithelial cells of the lungs
Procedure: as §1
Epithelial cells of the lungs of type H441 were cultivated in a manner common in the laboratory in a commercial RPMI 1640 medium with the additives 2 mM L-glutamine, 1.5 g/l of sodium carbonate, 4.5 g/l of glucose, 10 mM HEPES buffer pH 7.4, 10% bovine serum.
Verification of the Expression of the Epithelial Sodium Channel
In the cultivated epithelial cells, the expression of the sodium channel (ENaC) was determined by means of “real-time PCR”.

influenza A virus = test: Course of disease in mice with viral lung infection; type: in vivo, BALB/c mice; details: influenza A infected mice
Procedure: The following animal study groups were examined in respect of the effect of peptide SEQ ID No. 1 on a viral lung infection:
Group 1. Negative control (PBS via nasal).
Group 2. Positive control (infection with approx. 2,000 units of influenza A virus via nasal).
Group 3. Test group (infection with approx. 2,000 units of influenza A virus via nasal, as well as intratracheal administration of 10 μg of peptide SEQ ID No. 1).
In each group, 6 BALB/c mice were used.
The following treatment scheme was followed:
Group 1: Administration of PBS via nasal.
Group 2: Infection of the mice with influenza virus A via nasal.
Group 3: Infection of the mice with influenza virus A via nasal and administration of peptide SEQ ID No. 1.
Days of treatment 0, 2, 4, 6, 8:
Group 1: Intratracheal administration of PBS.
Group 2: Intratracheal administration of PBS.
Group 3: Intratracheal administration of peptide SEQ ID No. 1.
Days of treatment 0 to 10:
Daily observation of body temperature, body weight and survival rate of the test animals.

[5] = Lavage-induced large animal ARDS model; type: in vivo, pigs
Procedure: Material & methods: With the consent of the competent animal protection commission, lung damage was induced in two pigs (25 kg) under general anesthesia by surfactant depletion (four-time bronchoalveolar lavage, 30 ml/kg of body weight each). Subsequently, 1 mg/kg of body weight AP301 (peptide SEQ ID No. 1) was endotracheally applied. Animal 1 (1) received a deep tracheal injection of the overall dose, while for animal 2 (2), nebulization of the same dosage over 30 min was performed. Thereafter, there was a five-hour ventilation period. The arterial oxygen partial pressure (paO2) was recorded using an intra-aortic real-time measuring probe (FOXY, Ocean Optics, USA) validated in advance. Spirometry and hemodynamics were permanently registered as well as measurements with the PiCCO technology performed at half-hour intervals.
The ventilation settings were constantly kept in the non-protective range (Pmax 40 mbar, tidal volume≥10 ml/kg of body weight, PEEP≤10 mbar, frequency 25-35/min) in order to avoid therapeutic effects. […] 162.8 mmHg (1) or 224.6 mmHg (2), respectively. With nebulization of AP301, this occurred delayed compared to the deep tracheal application, however, it was more pronounced.

[6] = tested on: hyperpermeability of the lungs of mice; test: Pneumolysin-induced hyperpermeability and acute lung damage in mice (Evans blue, leukocytes in bronchoalveolar liquid); details: 250 ng of pneumolysin and 50 μg of peptide per mouse intratracheal, 5.5 hours

Molecule	formation of reactive oxygen molecules by the endothelial cells [1]	hyperpermeability caused by the toxin listeriolysin (electric resistance) [2]	hyperpermeability caused by the toxin listeriolysin (electric resistance) [3]	increase in the content of phosphorylated myosin light chain by listeriolysin (myosin light chain)	content of phosphorylated myosin light chain, peptide alone (myosin light chain; 50 μg/ml of peptide without toxin)	expression of the sodium channel ENaC (mRNA) [4]	reduction of body weight (influenza A virus; 10 μg of peptide intratracheal on days 0, 2, 4, 6, 8, within 10 days)	body temperature after 7 days (influenza A virus; 10 μg of peptide intratracheal, after 7 days) [°C]	mortality after 10 days (influenza A virus; 10 μg of peptide intratracheal, fraction of test animals, 10 days)	body temperature subsequently (after day 7) (influenza A virus; 10 μg of peptide intratracheal, recovery after day 7) [°C]	decrease in body weight (overall conclusion) (influenza A virus; in words)	lowering of the body temperature (overall conclusion) (influenza A virus; in words)	survival rate (overall conclusion) (influenza A virus; in words)	paO2 increase, max. ([5]; animal 1, 1 mg/kg deep tracheal injection) [mmHg]	paO2 increase, max. ([5]; animal 2, 1 mg/kg nebulization over 30 min) [mmHg]	duration of continuous improvement of oxygenation ([5]; both pigs, 1 mg/kg endotracheally)	reduction of the extra-vascular lung water compared to the initial value following surfactant depletion ([5]; pigs, 1 mg/kg endotracheally, PiCCO)	undesired hemodynamic effects during application of the drug ([5]; pigs, 1 mg/kg of body weight endotracheally)	number of leukocytes in the bronchoalveolar liquid [6]	toxin-mediated development of hyperpermeability (Evans blue dye in lung tissue) [6]
C[C@@H]1NC(=O)CNC(=O)[C@H](CCC(=O)O)NC(=O)[C@@H]2CCCN2C(=O)[C@H]([C@@H](C)O)NC(=O)[C@H](CCC(=O)O)NC(=O)[C@H](CCCNC(=N)N)NC(=O)[C@H](CCC(N)=O)NC(=O)CNC(=O)[C@@H](N)CSSC[C@@H](C(=O)O)NC(=O)[C@H](Cc2ccc(O)cc2)NC(=O)[C@H](Cc2c[nH]c3ccccc23)NC(=O)[C@@H]2CCCN2C(=O)[C@H](CCCCN)NC(=O)[C@H](C)NC(=O)[C@H](CCC(=O)O)NC1=O [peptide SEQ ID No. 1, CGQRETPEGAEAKPWYC]	no reactive oxygen molecules are formed	inhibited	inhibited	inhibits	no influence	triplication; also recorded: substantial increase	approx. 10%	35	⅓	37	reduces the decrease	reduces the lowering	clearly increased	162.8	224.6	about 1.5 hours	15.8-52.5%	no undesired hemodynamic effects	clear reduction; also recorded: clearly less leukocytes	inhibition
CGQREAPAGAAAKPWYC [peptide SEQ ID No. 3, reference compound]	does not result in an inhibition	–	–	no influence	–	no substantial increase	–	–	–	–	–	–	–	–	–	–	–	–	–	–
